The subject of this assay is polyclonal human IgG. Nature of the assay: Adsorption isotherm of peptoid affinity resins against polyclonal human IgG. In kind it is binding. On the set-up: Qmax: unit not given here. Particulars: for Qmax: maximum capacity (qmax) of resin from isotherm fit; for pKd: peptoid ligand conjugated to chromatographic resin, IgG in PBS, hyperbola fit of isotherm, Kd given in molar, read-out: Kd x 10^−6. Here is the method: The affinity for the peptoid-resin combinations was determined by measuring the adsorption isotherm of each resin against polyclonal human IgG (Pakimna et al., J Applied Sci., 12(11): 1136-1141, 2012). Briefly, 0.050 mL of 50% resin slurry was pipetted into 6 individual wells of a 96-well filter plate (0.45 micron, PVDF, Harvard Apparatus). The resin was washed with 2×250 μL PBS using a vacuum manifold. To an individual well, 0.25 mL of a human polyclonal IgG solution at different concentrations (10, 5, 2.5, 1.25, 0.625, and 0.3125 mg/mL) was added. The resin/IgG suspension was agitated gently on a rocking table for 30 minutes. The fluid was then collected via vacuum, and the resin was washed with 0.25 mL of PBS. The filtrate and wash were then analyzed by the BCA assay to determine the residual IgG concentration relative to the starting concentration of the solution.
The equilibrium concentrations were then used to determine the capacity of the resin at each IgG concentration using the following formula: q=Volumesample×(Initial Concentration−Equilibrium Concentration)/Volumeresin
A plot of q versus equilibrium concentration was generated and the data fit with a hyperbola to determine the affinity constant (Kd) and the maximum capacity (qmax) according to the below formula, where C=the equilibrium concentration of antibody in solution: q=qmax×C/(kd+C) Typical adsorption isotherm is shown in FIG. 2. Tabulated Kd and qmax data is found in Table 2.

pKd: −log10 of the molar value. Where two headings read alike, the source gives them in different places. *1 amine or outer side, *2 acyl side, *3 side chain or, on linkers, in order; H or OH if unused. Where a SMILES comes first, the peptide text is derived from it. [ ]: non-standard residue; d: D form. Gly(N(CH2)2(3-indolyl)) = O=C(O)CNCCc1c[nH]c2ccccc12; N(2-mercaptoethyl)Gly = O=C(CN(CCS[*:3])[*:1])[*:2]; N(4-hydroxyphenethyl)Gly = O=C(O)CNCCc1ccc(O)cc1; Gly(N-(CH2)3-guanidino) = N=C(N)NCCCNCC(=O)O; NGly(CH2(3-pyridyl)) = O=C(O)CNCc1cccnc1; N(CH2CH2COOH)Gly = O=C(O)CCNCC(=O)O; Gly(N(CH2)3NH2) = NCCCNCC(=O)O; Cysteamide = C(CS[*:3])N[*:1]; X1 = CSCCN(CC(=O)[*:2])[*:1]; Nphe = O=C(O)CNCc1ccccc1; NPrGly = CCCNCC(=O)O; Nme = COCCNCC(=O)O; Sar = CNCC(=O)O

Here are results for 20 compounds from patent US11053281B2, “Peptoid affinity ligands” (MIKE-ANN, LLC, priority 2016, dated 2021).

What is called pKd is −log10 of the Kd, conventionally taken in molar units.

As for `CCCN(CC(=O)N(CCc1c[nH]c2ccccc12)CC(=O)NCCS)C(=O)CN(CCc1c[nH]c2ccccc12)C(=O)CN(C)C(=O)CN(Cc1cccnc1)C(=O)CN(CCSC)C(=O)CNCc1cccnc1` [Ligand 16-64-2] (H-[NGly(CH2(3-pyridyl))][N(2-mercaptoethyl)Gly](Me)[NGly(CH2(3-pyridyl))][Sar][Gly(N(CH2)2(3-indolyl))][NPrGly][Gly(N(CH2)2(3-indolyl))]-Cysteamide), for the setting “Table 3”, the Qmax was determined as 49 and the pKd is 5.26.

Take `CSCCN(CC(=O)N(CCCN)CC(=O)N(CC(=O)N(CCC(=O)O)CC(=O)N(C)CC(=O)NCCS)Cc1cccnc1)C(=O)CN(Cc1ccccc1)C(=O)CNCc1cccnc1` [Ligand 16-64-4] (H-[NGly(CH2(3-pyridyl))][Nphe][X1][Gly(N(CH2)3NH2)][NGly(CH2(3-pyridyl))][N(CH2CH2COOH)Gly][Sar]-Cysteamide): for the setting “Table 3”, the Qmax worked out at 33 and the pKd is 4.55.

As to `CCCN(CC(=O)N(CCc1c[nH]c2ccccc12)CC(=O)NCCS)C(=O)CN(CCc1c[nH]c2ccccc12)C(=O)CN(C)C(=O)CN(CCC(=O)O)C(=O)CN(Cc1cccnc1)C(=O)CNCCCN` [Ligand 15-91-4] (H-[Gly(N(CH2)3NH2)][NGly(CH2(3-pyridyl))][N(CH2CH2COOH)Gly][Sar][Gly(N(CH2)2(3-indolyl))][NPrGly][Gly(N(CH2)2(3-indolyl))]-Cysteamide), where the note is “Table 3”, the Qmax is 32 and the pKd was 5.22.

Take `CCCN(CC(=O)N(CCc1c[nH]c2ccccc12)CC(=O)NCCS)C(=O)CN(CCc1c[nH]c2ccccc12)C(=O)CN(C)C(=O)CN(CCCNC(=N)N)C(=O)CN(CCOC)C(=O)CNCc1cccnc1` [Ligand 15-28-5] (H-[NGly(CH2(3-pyridyl))][Nme][Gly(N-(CH2)3-guanidino)][Sar][Gly(N(CH2)2(3-indolyl))][NPrGly][Gly(N(CH2)2(3-indolyl))]-Cysteamide): under “Table 3”, the Qmax is on record as 61 and the pKd is 5.21.

Consider `CCCN(CC(=O)N(CCc1c[nH]c2ccccc12)CC(=O)NCCS)C(=O)CN(CCc1c[nH]c2ccccc12)C(=O)CN(C)C(=O)CN(CCCNC(=N)N)C(=O)CN(CCc1c[nH]c2ccccc12)C(=O)CNCCC(=O)O` [Ligand 18-28-7] (H-[N(CH2CH2COOH)Gly][Gly(N(CH2)2(3-indolyl))][Gly(N-(CH2)3-guanidino)][Sar][Gly(N(CH2)2(3-indolyl))][NPrGly][Gly(N(CH2)2(3-indolyl))]-Cysteamide), for which, under “Table 3”, the Qmax is 42 and the pKd was 5.25.

Turning to `CCCN(CC(=O)N(CCCN)CC(=O)N(CC(=O)N(CCC(=O)O)CC(=O)N(C)CC(=O)NCCS)Cc1cccnc1)C(=O)CN(CCC(=O)O)C(=O)CNCc1cccnc1` [Ligand 16-75-1] (H-[NGly(CH2(3-pyridyl))][N(CH2CH2COOH)Gly][NPrGly][Gly(N(CH2)3NH2)][NGly(CH2(3-pyridyl))][N(CH2CH2COOH)Gly][Sar]-Cysteamide), under “Table 3”, the Qmax came out at 33 and the pKd was 4.74.

As to `CCCNCC(=O)N(CC(=O)N(CC(=O)N(C)CC(=O)N(CCc1c[nH]c2ccccc12)CC(=O)N(CCC)CC(=O)N(CCc1c[nH]c2ccccc12)CC(=O)NCCS)Cc1ccccc1)Cc1cccnc1` [Ligand 12-79-4] (H-[NPrGly][NGly(CH2(3-pyridyl))][Nphe][Sar][Gly(N(CH2)2(3-indolyl))][NPrGly][Gly(N(CH2)2(3-indolyl))]-Cysteamide), where the note is “Table 3”, the Qmax stood at 69 and the negative-log Kd (pKd) was 5.44.

`CCCN(CC(=O)N(CCc1c[nH]c2ccccc12)CC(=O)NCCS)C(=O)CN(CCc1c[nH]c2ccccc12)C(=O)CN(C)C(=O)CN(Cc1cccnc1)C(=O)CN(CCOC)C(=O)CNCc1cccnc1` [Ligand 15-91-1] (H-[NGly(CH2(3-pyridyl))][Nme][NGly(CH2(3-pyridyl))][Sar][Gly(N(CH2)2(3-indolyl))][NPrGly][Gly(N(CH2)2(3-indolyl))]-Cysteamide): for the setting “Table 3”, the Qmax was 80 and the pKd is 4.18.

For the compound `COCCN(CC(=O)N(CC(=O)NCCS)Cc1cccnc1)C(=O)CN(CCCN)C(=O)CNCCc1c[nH]c2ccccc12` [Ligand 16-81-7] (H-[Gly(N(CH2)2(3-indolyl))][Gly(N(CH2)3NH2)][Nme][NGly(CH2(3-pyridyl))]-Cysteamide), for the setting “Table 3”, the Qmax was found to be 39 and the pKd was 5.32.

Turning to `CCCN(CC(=O)N(C)CC(=O)N(CCc1c[nH]c2ccccc12)CC(=O)N(CCC)CC(=O)N(CCc1c[nH]c2ccccc12)CC(=O)NCCS)C(=O)CN(CCCNC(=N)N)C(=O)CNCCc1c[nH]c2ccccc12` [Ligand 12-76-3] (H-[Gly(N(CH2)2(3-indolyl))][Gly(N-(CH2)3-guanidino)][NPrGly][Sar][Gly(N(CH2)2(3-indolyl))][NPrGly][Gly(N(CH2)2(3-indolyl))]-Cysteamide), for the setting “Table 3”, the Qmax is 87 and the pKd is 5.49.

`COCCNCC(=O)N(CCc1c[nH]c2ccccc12)CC(=O)N(CCc1c[nH]c2ccccc12)CC(=O)N(CCCN)CC(=O)NCCS` [Ligand 16-77-4] (H-[Nme][Gly(N(CH2)2(3-indolyl))][Gly(N(CH2)2(3-indolyl))][Gly(N(CH2)3NH2)]-Cysteamide): where the note is “Table 2”, the Qmax came to 44 and the pKd is 5.37.

Turning to `CCCNCC(=O)N(CCc1c[nH]c2ccccc12)CC(=O)NCC(=O)N(CCCNC(=N)N)CC(=O)N(CCc1c[nH]c2ccccc12)CC(=O)N(CC(=O)NCCS)Cc1cccnc1` [Ligand 12-65-9], where the note is “Table 2”, the Qmax was determined as 76 and the pKd was 5.03.

`COCCN(CC(=O)NCCS)C(=O)CN(CCc1c[nH]c2ccccc12)C(=O)CN(CCc1c[nH]c2ccccc12)C(=O)CNCCCN` [Ligand 16-77-3] (H-[Gly(N(CH2)3NH2)][Gly(N(CH2)2(3-indolyl))][Gly(N(CH2)2(3-indolyl))][Nme]-Cysteamide): for the setting “Table 2”, the Qmax is on record as 47 and the pKd was 5.40.

Consider `COCCN(CC(=O)N(CC(=O)N(CCCNC(=N)N)CC(=O)N(CC(=O)N(CCC(=O)O)CC(=O)N(C)CC(=O)NCCS)Cc1cccnc1)Cc1ccccc1)C(=O)CNCc1cccnc1` [Ligand 18-28-12] (H-[NGly(CH2(3-pyridyl))][Nme][Nphe][Gly(N-(CH2)3-guanidino)][NGly(CH2(3-pyridyl))][N(CH2CH2COOH)Gly][Sar]-Cysteamide), for which, under “Table 2”, the Qmax is listed as 41 and the pKd was 4.80.

For the compound `NC(=O)NCCCN(CC(=O)N(CCc1c[nH]c2ccccc12)CC(=O)N(CC(=O)NCCS)Cc1cccnc1)C(=O)CNCCc1c[nH]c2ccccc12` [Ligand 16-75-5], for the setting “Table 2”, the Qmax was found to be 44 and the pKd is 5.37.

For `NCCCNCC(=O)N(CC(=O)N(CCc1c[nH]c2ccccc12)CC(=O)N(CCc1c[nH]c2ccccc12)CC(=O)NCCS)Cc1cccnc1` [Ligand 16-82-3] (H-[Gly(N(CH2)3NH2)][NGly(CH2(3-pyridyl))][Gly(N(CH2)2(3-indolyl))][Gly(N(CH2)2(3-indolyl))]-Cysteamide), where the note is “Table 2”, the Qmax worked out at 47 and the pKd is 5.60.

Regarding `NC(=O)NCCCN(CC(=O)N(CCc1c[nH]c2ccccc12)CC(=O)NCCS)C(=O)CN(CCc1c[nH]c2ccccc12)C(=O)CNCc1cccnc1` [Ligand 16-77-1], under “Table 2”, the Qmax is given as 61 and the pKd is 5.44.

Take `CCCN(CC(=O)N(CCc1c[nH]c2ccccc12)CC(=O)NCCS)C(=O)CN(CCc1c[nH]c2ccccc12)C(=O)CN(C)C(=O)CN(Cc1cccnc1)C(=O)CN(CCc1c[nH]c2ccccc12)C(=O)CNCCCNC(=N)N` [Ligand 18-28-6] (H-[Gly(N-(CH2)3-guanidino)][Gly(N(CH2)2(3-indolyl))][NGly(CH2(3-pyridyl))][Sar][Gly(N(CH2)2(3-indolyl))][NPrGly][Gly(N(CH2)2(3-indolyl))]-Cysteamide): for the setting “Table 2”, the Qmax was 42 and the pKd was 5.59.

Take `CN(CC(=O)NCCS)C(=O)CN(CCC(=O)O)C(=O)CN(Cc1cccnc1)C(=O)CN(CCCNC(=N)N)C(=O)CN(CCCNC(=N)N)C(=O)CN(CCc1ccc(O)cc1)C(=O)CNCCc1ccc(O)cc1` [Ligand 18-28-1] (H-[N(4-hydroxyphenethyl)Gly][N(4-hydroxyphenethyl)Gly][Gly(N-(CH2)3-guanidino)][Gly(N-(CH2)3-guanidino)][NGly(CH2(3-pyridyl))][N(CH2CH2COOH)Gly][Sar]-Cysteamide): where the note is “Table 2”, the Qmax is 41 and the pKd was 5.11.

Turning to `CCCN(CC(=O)N(CCc1c[nH]c2ccccc12)CC(=O)NCCS)C(=O)CN(CCc1c[nH]c2ccccc12)C(=O)CN(C)C(=O)CN(CCc1c[nH]c2ccccc12)C(=O)CN(Cc1cccnc1)C(=O)CNCCCNC(=N)N` [Ligand 12-76-4] (H-[Gly(N-(CH2)3-guanidino)][NGly(CH2(3-pyridyl))][Gly(N(CH2)2(3-indolyl))][Sar][Gly(N(CH2)2(3-indolyl))][NPrGly][Gly(N(CH2)2(3-indolyl))]-Cysteamide), under “Table 2”, the Qmax turned out to be 89 and the pKd is 5.24.
